Measurements from patent publication US20060069132A1, “Azolecarboxamide herbicides” (priority 2004, published 2006).

Tests used:
[1] = tested on: blackgrass; experiment: Test B postemergence herbicide test; format: in vivo, Alopecurus myosuroides; settings: postemergence
Summary of the method: (§1)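 Paddy species grown to the 2-leaf stage under flooding; blackgrass sprayed postemergence at 2–18 cm (1- to 4-leaf stage). Plants kept in a greenhouse for 13 to 15 days, then visually rated against controls on 0 (no effect) to 100 (complete control).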

[2] = tested on: ducksalad; experiment: Test B flooded paddy test; format: in vivo, Heteranthera limosa; settings: 1000 g ai/ha, scale 0 to 100 (0 no effect, 100 complete control)
Summary of the method: as §1

[3] = tested on: cocklebur; experiment: Test B pre-/postemergence herbicide test; format: in vivo, Xanthium strumarium; settings: for Cocklebur plant response rating: postemergence
Summary of the method: (§2)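 Test chemicals in a non-phytotoxic solvent mixture with surfactant were applied preemergence to seeded species and postemergence to plants 2-18 cm tall (1- to 4-leaf stage); rice and barnyardgrass were also tested in a flooded paddy at the 2-leaf stage. Visual rating versus controls after 13-15 days in greenhouse, scale 0 (no effect) to 100 (complete control).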

[4] = tested on: corn; experiment: Test B pre-/postemergence herbicide test; format: in vivo, Zea mays; settings: for Corn plant response rating: postemergence
Summary of the method: (§3)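 Evaluation is visual, comparing treated with control plants on a scale where 0 means no effect and 100 means full control. Treatments were preemergence, or postemergence on seedlings 2–18 cm tall, and held 13–15 days in the greenhouse.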

[5] = tested on: rice; experiment: Test B flooded paddy test; format: in vivo, Oryza sativa; settings: 1000 g ai/ha, scale 0 to 100 (0 no effect, 100 complete control)
Summary of the method: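 Each value is a visual 0–100 response rating taken against controls 13 to 15 days after treatment in the greenhouse. Plants received formulated chemical postemergence at the 1- to 4-leaf stage or, in flooded paddy, at the 2-leaf stage.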

[6] = tested on: smallflower umbrella sedge; experiment: Test C flooded paddy test; format: in vivo, Cyperus difformis
[7] = tested on: giant foxtail; experiment: Test B pre-/postemergence herbicide test; format: in vivo, Setaria faberi; settings: for Foxtail, Giant plant response rating: postemergence
Summary of the method: as §3

[8] = tested on: rice; experiment: Test C flooded paddy test; format: in vivo, Oryza sativa
Summary of the method: (§4)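 Postemergence sprays applied to plants 2 to 18 cm tall (1- to 4-leaf stage); paddy species grown to 2-leaf stage under flooding. After 12 to 14 days in greenhouse, visual rating versus untreated controls on 0–100 scale (0 no effect, 100 complete control).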

[9] = tested on: morningglory; experiment: Test B pre-/postemergence herbicide test; format: in vivo, Ipomoea coccinea; settings: for Morningglory plant response rating: scale 0 (no effect) to 100 (complete control)
Summary of the method: as §2

[10] = tested on: wild oat; experiment: Test B postemergence herbicide test; format: in vivo, Avena fatua; settings: scale 0 (no effect) to 100 (complete control)
Summary of the method: (§5)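 Postemergence plants were sprayed with formulated test chemicals at 2 to 18 cm height (1- to 4-leaf stage); paddy species were grown to the 2-leaf stage. After 13 to 15 days in a greenhouse, injury was rated visually against untreated controls on a 0–100 scale (0 = no effect, 100 = complete control).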

[11] = tested on: large crabgrass; experiment: Test B pre-/postemergence herbicide test; format: in vivo, Digitaria sanguinalis; settings: for Crabgrass, Large plant response rating: postemergence
Summary of the method: as §3

[12] = tested on: barnyardgrass; experiment: Test C flooded paddy test; format: in vivo, Echinochloa crus-galli
Summary of the method: as §4

[13] = tested on: velvetleaf; experiment: Test B pre-/postemergence herbicide test; format: in vivo, Abutilon theophrasti; settings: for Velvetleaf plant response rating: scale 0 (no effect) to 100 (complete control)
Summary of the method: as §3

[14] = tested on: Surinam grass; experiment: Test B pre-/postemergence herbicide test; format: in vivo, Urochloa decumbens; settings: for Surinam Grass plant response rating: scale 0 (no effect) to 100 (complete control)
Summary of the method: as §3

[15] = tested on: barnyardgrass; experiment: Test B flooded paddy test; format: in vivo, Echinochloa crus-galli; settings: 1000 g ai/ha, scale 0 to 100 (0 no effect, 100 complete control)
Summary of the method: as §1

[16] = tested on: lambsquarters; experiment: Test B pre-/postemergence herbicide test; format: in vivo, Chenopodium album; settings: for Lambsquarters plant response rating: scale 0 (no effect) to 100 (complete control)
Summary of the method: as §3

[17] = tested on: small flower umbrella sedge; experiment: Test B flooded paddy test; format: in vivo, Cyperus difformis; settings: 1000 g ai/ha, scale 0 to 100 (0 no effect, 100 complete control)
Summary of the method: as §1

[18] = tested on: wheat; experiment: Test B postemergence herbicide test; format: in vivo, Triticum aestivum; parameters: key to Wheat plant response rating: 0 = no effect, 100 = complete control
Summary of the method: as §5

[19] = tested on: barnyardgrass; experiment: Test B pre-/postemergence herbicide test; format: in vivo, Echinochloa crus-galli; settings: for Barnyardgrass plant response rating: postemergence
Summary of the method: as §2

[20] = tested on: ducksalad; experiment: Test C flooded paddy test; format: in vivo, Heteranthera limosa
[21] = tested on: pigweed; experiment: Test B pre-/postemergence herbicide test; format: in vivo, Amaranthus retroflexus; settings: for Pigweed plant response rating: scale 0 (no effect) to 100 (complete control)
Summary of the method: as §3

[22] = 125 g ai/ha, visual rating, scale 0 (no effect) to 100 (complete control)
[23] = 500 g ai/ha, scale 0 to 100, 0 is no effect, 100 is complete control
[24] = 125 g ai/ha, 0 is no effect, 100 is complete control, preemergence
[25] = 125 g ai/ha, scale 0 to 100 (0 no effect, 100 complete control)
[26] = 250 g ai/ha, scale of 0 to 100, 0 is no effect, 100 is complete control
[27] = 500 g ai/ha, visual rating after 12 to 14 days, scale 0 to 100 (0 no effect, 100 complete control)
[28] = 125 g ai/ha, visual rating, postemergence

## CCc1nn(C(C)(C)CC)nc1C(=O)Nc1cccc(C(=O)N2CC=CC2)c1 [Compound 369]
[1]; [22]
  Blackgrass plant response rating: 0
[1]; [23]
  Blackgrass plant response rating: 30
[2]
  Ducksalad plant response rating: 90
[3]; [24]
  Plant response rating (0 to 100 scale), Cocklebur: 0
[3]; [22]
  Cocklebur plant response rating: 20
[3]; [23]
  Cocklebur plant response rating: 70
[4]; [24]
  Plant response rating (0 to 100 scale), Corn: 20
[4]; [22]
  Corn plant response rating: 10
[4]; [23]
  Corn plant response rating: 10
[5]
  Rice plant response rating: 60
[6]; 62 g ai/ha, scale 0 to 100
  Sedge, Umbrella plant response rating: 75
[6]; [25]
  Sedge, Umbrella plant response rating: 75
[6]; [26]
  Sedge, Umbrella plant response rating: 85
[7]; [24]
  Plant response rating (0 to 100 scale), Foxtail, Giant: 20
[7]; [22]
  Foxtail, Giant plant response rating: 20
[7]; [23]
  Foxtail, Giant plant response rating: 30
[8]; 62 g ai/ha, scale 0 to 100
  Rice plant response rating: 55
[8]; [25]
  Rice plant response rating: 60
[8]; [26]
  Rice plant response rating: 60
[8]; [27]
  Plant response rating, Rice: 65
[9]; [24]
  Plant response rating (0 to 100 scale), Morningglory: 0
[9]; [28]
  Morningglory plant response rating: 0
[9]; Postemergence, 500 g ai/ha
  Morningglory plant response rating: 20
[10]; [28]
  Oat, Wild plant response rating: 20
[10]; Postemergence, 500 g ai/ha
  Oat, Wild plant response rating: 30
[11]; [24]
  Plant response rating (0 to 100 scale), Crabgrass, Large: 20
[11]; [22]
  Crabgrass, Large plant response rating: 10
[11]; [23]
  Crabgrass, Large plant response rating: 20
[12]; 62 g ai/ha, scale 0 to 100 (0 no effect, 100 complete control)
  Barnyardgrass plant response rating: 10
[12]; [25]
  Barnyardgrass plant response rating: 45
[12]; [26]
  Barnyardgrass plant response rating: 50
[12]; [27]
  Plant response rating, Barnyardgrass: 65
[13]; [24]
  Plant response rating (0 to 100 scale), Velvetleaf: 0
[13]; [28]
  Velvetleaf plant response rating: 10
[13]; Postemergence, 500 g ai/ha
  Velvetleaf plant response rating: 60
[14]; [24]
  Plant response rating (0 to 100 scale), Surinam Grass: 0
[14]; [28]
  Surinam Grass plant response rating: 10
[14]; Postemergence, 500 g ai/ha
  Surinam Grass plant response rating: 10
[15]
  Barnyardgrass plant response rating: 50
[16]; [24]
  Plant response rating (0 to 100 scale), Lambsquarters: 100
[16]; [28]
  Lambsquarters plant response rating: 20
[16]; Postemergence, 500 g ai/ha
  Lambsquarters plant response rating: 70
[17]
  Sedge, Umbrella plant response rating: 80
[18]; 125 g ai/ha, visual rating, scale 0 (no effect) to 100 (complete control), postemergence
  Wheat plant response rating: 0
[18]; 500 g ai/ha, scale 0 to 100, 0 no effect, 100 complete control, preemergence
  Wheat plant response rating: 0
[18]; Postemergence, 500 g ai/ha, scale 0 (no effect) to 100 (complete control)
  Wheat plant response rating: 0
[19]; [24]
  Plant response rating (0 to 100 scale), Barnyardgrass: 30
[19]; [22]
  Barnyardgrass plant response rating: 10
[19]; [23]
  Barnyardgrass plant response rating: 20
[20]; 62 g ai/ha, scale 0 to 100
  Ducksalad plant response rating: 80
[20]; [25]
  Ducksalad plant response rating: 80
[20]; [26]
  Ducksalad plant response rating: 80
[20]; [27]
  Plant response rating, Ducksalad: 80
[21]; [24]
  Plant response rating (0 to 100 scale), Pigweed: 80
[21]; [28]
  Pigweed plant response rating: 30
[21]; Postemergence, 500 g ai/ha
  Pigweed plant response rating: 60
